# According to US20240218066A1, “USE OF ANTI-PD-1 ANTIBODY IN COMBINATION WITH FIRST-LINE CHEMOTHERAPY IN TREATMENT OF ADVANCED NON-SMALL CELL LUNG CANCER” (SHANGHAI JUNSHI BIOSCIENCES CO., LTD., priority 2021, published 2024):
# Assays:
# [1] = tested on: patients with untreated advanced NSCLC; experiment: Phase III clinical study, safety analysis (SS population)
# Method: This is a randomized, double-blind, placebo-controlled, multicenter, phase III clinical study for assessing the efficacy and safety of toripalimab (JS001) or placebo in combination with first-line chemotherapy in patients with untreated advanced NSCLC and exploring the population with optimal biomarker prediction.
# Toripalimab 240 mg/placebo was administered by intravenous infusion once every three weeks (Q3W) in cycles of 21 days, with treatment continued until the patients met the discontinuation criteria, i.e., recorded progressive disease, unacceptable AEs, investigator-assessed unsuitability for continued treatment, withdrawal of informed consent, 2 years of JS001 treatment, or other reasons as specified in the protocol.
# The selection of cisplatin or carboplatin was at the discretion of the investigator.
# Safety analysis set (SS): including all patients who received at least one dose of the study drug (JS001/placebo/chemotherapeutic agent).
# Safety analysis was performed in SS and crossover treatment analysis sets, where safety data from the double-blind stage of the primary study and the crossover treatment stage were analyzed separately. Safety analyses include drug exposure, compliance, adverse events, laboratory examinations, vital signs, physical examinations, electrocardiogramaminations, ECOG scores, etc.
# All safety analyses were based on the SS population (464 patients), including 308 patients in the test group and 156 patients in the control group. […] The primary safety analysis results based on the SS population in the double-blind stage of the primary study are as follows:
# [2] = tested on: patients with untreated advanced NSCLC; experiment: Phase III clinical study, efficacy assessed by the investigator according to RECIST 1.1; assay type: in vivo, human; parameters: reduction of the risk of progression or death, compared to standard chemotherapy / increase of PFS rate at 6 months compared to control group / increase of PFS rate at 12 months compared to control group / increase in ORR compared to control group: concentration or dose not given beside the values
# Method: (§1) About 450 patients with advanced NSCLC not accompanied by EGFR-sensitive mutations and ALK fusions were randomly divided into two groups according to a 2:1 ratio, with the test group receiving toripalimab in combination with first-line standard chemotherapy and the control group receiving placebo in combination with first-line standard chemotherapy. Stratification was performed according to PD-L1 expression (TC≥1% vs TC<1%), smoking status (frequent smoking vs no smoking or little smoking), and pathological type (squamous cell carcinoma vs non-squamous cell carcinoma).
# (§2) After randomization, the patients were subjected to treatment in the induction stage for 4-6 cycles, during which the patients received toripalimab/placebo+first-line standard chemotherapy. After the induction stage was over, the patients were subjected to treatment in the maintenance stage, during which patients with squamous cell carcinoma continued to receive toripalimab/placebo treatment until progressive disease, and patients with non-squamous cell carcinoma continued to receive toripalimab/placebo+pemetrexed treatment until progressive disease.
# Tumor assessments were performed once every 6 weeks for the first 12 months of the study stage according to RECIST 1.1 and iRECIST; after 12 months, tumor assessments were performed every 9 weeks until progressive disease, initiation of a new anti-tumor therapy, intolerable toxicity, withdrawal of informed consent or death, 2 years of treatment with toripalimab, or other reasons as specified in the protocol, whichever occurred first.
# Eligible subjects must (1) be patients with histologically and/or cytologically confirmed locally advanced (stage IIIB or IIIC) and stage IV non-small cell lung cancer that is inoperable and cannot receive radical concurrent chemoradiotherapy; (2) have at least one measurable lesion (according to RECIST 1.1); (3) have not received any systemic treatment (patients with recurrence more than 6 months after completion of prior neoadjuvant/adjuvant therapy may also be enrolled); (4) be aged between 18 and 75 years; (5) have ECOG of 0-1; (6) have an expected survival of ≥3 months; and (7) be available to provide tissue specimens for PD-L1 testing.
# (§3) Unless otherwise specified, the efficacy analysis was based on the ITT set, which was analyzed by groups according to the treatment regimen to which patients were assigned at randomization.
# The progression-free survival rate and median progression-free survival of the JS001+first-line standard treatment group and the placebo+first-line standard treatment group at different time points after the start of treatment were estimated by the Kaplan-Meier method, and Kaplan-Meier curves were plotted. The 95% confidence interval for progression-free survival rate at different time points (6 months and 1 year) was estimated using the Greenwood formula. The 95% confidence interval for median progression-free survival was estimated using the Brookmeyer-Crowley method where the log-log function conversion was used to reach normal approximation. Statistical test was performed on the inter-group difference by a stratified log-rank method for the total population. Statistical test was performed on the inter-group difference by a non-stratified log-rank method for the subpopulations. A stratified COX proportional hazards model was used to estimate the inter-group hazard ratio (HR) and the corresponding 95% confidence interval, and the tied events were processed by an exact method. Stratification analysis was performed using 3 stratification factors in the randomization process, including: (1) PD-L1 expression (TC≥1% vs TC<1%); (2) smoking status (frequent smoking vs no smoking or little smoking); and (3) pathological type (squamous cell carcinoma vs non-squamous cell carcinoma).
# For analysis of secondary efficacy endpoints OS, DOR, and TTR, the method described above as applied to the primary efficacy endpoint PFS was used. […]
# [3] = tested on: patients with untreated advanced NSCLC; experiment: Phase III clinical study, overall survival (OS); assay type: in vivo, human
# Method: as §1, §2, §3
# For analysis of secondary efficacy endpoints OS, DOR, and TTR, the method described above as applied to the primary efficacy endpoint PFS was used. For ORR and DCR, the percentage of patients in each treatment group was calculated, and their 95% confidence intervals were calculated using the Clopper-Pearson method. The nominal P values for inter-group comparison were calculated using the Cochran-Mantel-Haenszel method considering randomization stratification factors that were the same as the primary efficacy analysis, and the 95% CI for the inter-group rate differences was estimated.
# [4] = SS population, double-blind stage
# [5] = compared to placebo + chemotherapy
# [6] = patients with BOR reaching CR or PR, overall population
# [7] = patients with non-squamous cell carcinoma
# [8] = patients with non-squamous cell carcinoma, listed as test group
# [9] = patients with squamous cell carcinoma
# [10] = patients with squamous cell carcinoma, listed as test group
substance,measurement,setting,value
JS001 + standard first-line chemotherapy: toripalimab 240 mg Q3W plus albumin-bound paclitaxel+carboplatin (squamous) or pemetrexed+cisplatin/carboplatin (non-squamous),SAE: anemia,[1]; SS population,5.2%
same,SAE: bone marrow depression,[1]; SS population,1.0%
same,SAE: infectious pneumonia,[1]; SS population,4.9%
same,SAE: leukopenia,[1]; SS population,2.9%
same,SAE: neutropenia,[1]; SS population,5.5%
same,SAE: thrombocytopenia,[1]; SS population,6.8%
same,TEAE: anemia,[1]; SS population,88.3%
same,TEAE: anorexia,[1]; SS population,32.1%
same,TEAE: constipation,[1]; SS population,18.5%
same,TEAE: elevated aspartate aminotransferase,[1]; SS population,31.8%
same,TEAE: fatigue,[1]; SS population,33.4%
same,TEAE: fever,[1]; SS population,20.8%
same,TEAE: hypothyroidism,[1]; SS population,14.9%
same,TEAE: leukopenia,[1]; SS population,83.1%
same,TEAE: nausea,[1]; SS population,31.8%
same,TEAE: neutropenia,[1]; SS population,83.4%
same,TEAE: rash,[1]; SS population,20.1%
same,TEAE: thrombocytopenia,[1]; SS population,68.5%
same,proportion of SAEs judged by the investigator to be related to the treatment regimen,[1]; SS population,31.2%
same,proportion of SAEs occurring during treatment,[1]; SS population,38.6%
same,proportion of SAEs of grade 3 or higher judged by the investigator to be related to the treatment regimen,[1]; SS population,22.4%
same,proportion of TEAEs of grade 3 or higher as per CTCAE,[1]; SS population,76.3%
same,proportion of TEAEs of grade 3 or higher as per CTCAE judged by the investigator to be related to the treatment regimen,[1]; SS population,71.4%
same,proportion of patients who experienced at least 1 TEAE,[1]; [4],99.0%
same,proportion of patients who experienced at least 1 TEAE related to the treatment regimen,[1]; [4],98.1%
same,effect on chemotherapy-related toxicity (in words),[1]; [5],did not increase chemotherapy-related toxicity
same,effect on the incidence of adverse events of grade 3 or higher (in words),[1]; [5],did not increase the incidence of adverse events of grade 3 or higher
same,PFS rate at 6 months,[2]; ITT,62.3%
same,PFS rate at 12 months,[2]; ITT,32.6%
same,increase of PFS rate at 6 months compared to control group,[2]; ITT,20.8%
same,increase of PFS rate at 12 months compared to control group,[2]; ITT,19.5%
same,HR for PFS (test vs control),"[2]; ITT population, RECIST 1.1",0.58
same,"PFS prolonged by, compared to standard chemotherapy","[2]; ITT population, RECIST 1.1",2.7 months
same,"reduction of the risk of progression or death, compared to standard chemotherapy","[2]; ITT population, RECIST 1.1",42%
same,median PFS,"[2]; ITT population, RECIST 1.1, interim analysis as of Nov. 17, 2020",8.3 months
same,Best overall response: Complete response (CR),[2]; non-squamous cell carcinoma,0 N (%)
same,Best overall response: Deletion,[2]; non-squamous cell carcinoma,8 (4.9) N (%)
same,Best overall response: Not evaluable (NE),[2]; non-squamous cell carcinoma,0 N (%)
same,Best overall response: Partial response (PR),[2]; non-squamous cell carcinoma,95 (58.6) N (%)
same,Best overall response: Progressive disease (PD),[2]; non-squamous cell carcinoma,5 (3.1) N (%)
same,Objective response rate (ORR),[2]; non-squamous cell carcinoma,95 (58.6) N (%)
same,DCR,[2]; overall population,90.9%
same,"DOR prolonged by, compared to control group",[2]; overall population,4.1 months
same,HR for DOR (test vs control),[2]; overall population,0.56
same,increase in ORR compared to control group,[2]; overall population,21.7%
same,ORR,"[2]; overall population, RECIST v1.1",63.4%
same,median DOR,[2]; [6],8.3 months
same,median TTR,[2]; [6],1.5 months
same,HR for DOR (test vs control),[2]; [7],0.63
same,HR for PFS (test vs control),[2]; [7],0.59
same,ORR,[2]; [7],58.6%
same,increase in ORR compared to control group,[2]; [7],32.1%
same,median DOR (95% confidence interval),[2]; [7],"8.6 (6.9, NE) months"
same,median TTR (95% confidence interval),[2]; [7],"1.4 (1.4, 1.9) months"
same,median PFS,"[2]; patients with non-squamous cell carcinoma, RECIST 1.1",8.4 months
same,median DOR (95% confidence interval),[2]; [8],8.6 months
same,median TTR (95% confidence interval),[2]; [8],1.4 months
same,HR for DOR (test vs control),[2]; [9],0.46
same,HR for PFS (test vs control),[2]; [9],0.55
same,ORR,[2]; [9],68.7%
same,increase in ORR compared to control group,[2]; [9],9.8%
same,median DOR (95% confidence interval),[2]; [9],"6.9 (4.5, NE) months"
same,median TTR (95% confidence interval),[2]; [9],"1.5 (1.4, 1.6) months"
same,median PFS,"[2]; patients with squamous cell carcinoma, RECIST 1.1",7.1 months
same,median DOR (95% confidence interval),[2]; [10],6.9 months
same,median TTR (95% confidence interval),[2]; [10],1.5 months
same,Best overall response: Complete response (CR),[2]; squamous cell carcinoma,0 N (%)
same,Best overall response: Deletion,[2]; squamous cell carcinoma,8 (5.4) N (%)
same,Best overall response: Not evaluable (NE),[2]; squamous cell carcinoma,1 (0.7) N (%)
same,Best overall response: Partial response (PR),[2]; squamous cell carcinoma,101 (68.7) N (%)
same,Best overall response: Progressive disease (PD),[2]; squamous cell carcinoma,6 (4.1) N (%)
same,Objective response rate (ORR),[2]; squamous cell carcinoma,101 (68.7) N (%)
same,HR for OS (test vs control),[3]; ITT population,0.81
same,median OS,"[3]; ITT population, as of Mar. 11, 2021, OS data not mature",21.0 months
same,deaths reported,"[3]; as of Mar. 11, 2021, median follow-up 9.82 months",25.6%
same,HR for OS (test vs control),[3]; [7],0.56
same,HR for OS (test vs control),[3]; [9],1.23
same,median OS,[3]; [9],21.0 months
